Drawing on ChEMBL document CHEMBL1151017, “The synthesis of N-aryl androsterone pyrazoles as aromatase inhibitors” (Bioorg Med Chem Lett, 1997), this text covers IC50 for seven compounds.

In one test the target is T1, Aromatase (Homo sapiens, UniProt P11511).
T1 sequence (P11511 whole entry): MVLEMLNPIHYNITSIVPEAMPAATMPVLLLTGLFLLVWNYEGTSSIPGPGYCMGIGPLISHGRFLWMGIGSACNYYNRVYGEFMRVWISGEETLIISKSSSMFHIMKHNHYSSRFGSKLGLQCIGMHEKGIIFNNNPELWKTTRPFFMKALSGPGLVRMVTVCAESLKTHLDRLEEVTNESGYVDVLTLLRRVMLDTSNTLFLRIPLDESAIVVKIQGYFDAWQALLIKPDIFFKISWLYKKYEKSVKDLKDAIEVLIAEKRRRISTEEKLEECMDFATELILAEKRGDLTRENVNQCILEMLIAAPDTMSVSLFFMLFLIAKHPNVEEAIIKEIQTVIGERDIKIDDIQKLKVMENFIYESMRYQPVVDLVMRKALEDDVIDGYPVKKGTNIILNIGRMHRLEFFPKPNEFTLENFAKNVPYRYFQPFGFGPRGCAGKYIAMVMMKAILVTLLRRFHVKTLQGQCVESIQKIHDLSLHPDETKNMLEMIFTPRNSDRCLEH
The experiment in a line: Inhibition of cytochrome P450 19A1 aromatase from human placental microsomes.
The term IC50 denotes the concentration at which inhibition is half-maximal. High values mean lower potency, low ones higher potency. Consider `CC12CCC3C(Cc4nn(Cc5ccccc5)c5c4C3(C)CCC5=O)C1CCC2=O` (configuration not stated), for which half-maximal inhibition (IC50) was put at 342 nM.

With `CC12CCC3C(Cc4c5c(nn4Cc4ccc([N+](=O)[O-])cc4)C(=O)CCC53C)C1CCC2=O` (configuration not stated), 490 nM corresponded to half-maximal inhibition (IC50).

In turn, `CC12CCC3C(Cc4nn(Cc5ccc([N+](=O)[O-])cc5)c5c4C3(C)CCC5=O)C1CCC2=O` (configuration not stated) registered an IC50 of 658 nM.

`CC12CCC3C(Cc4c5c(nn4C/C=C/c4ccccc4)C(=O)CCC53C)C1CCC2=O` (configuration not stated) came in with a concentration for half-maximal inhibition (IC50) of 950 nM.

Take `CC12CCC3C(Cc4c5c(nn4Cc4ccccc4)C(=O)CCC53C)C1CCC2=O` (configuration not stated): half-maximal inhibition (IC50) was put at 245 nM.

As for `CC12CCC3C(Cc4[nH]nc5c4C3(C)CCC5=O)C1CCC2=O` (configuration not stated), 236 nM corresponded to half-maximal inhibition (IC50).

Another test addresses T1, Aromatase. In words: Inhibition of aromatase cytochrome P450 from human placental microsomes; 800-1000.
`CC12CCC3C(Cc4nn(C/C=C/c5ccccc5)c5c4C3(C)CCC5=O)C1CCC2=O` (configuration not stated) came in with a half-maximal inhibitory concentration (IC50) of 800 nM.
